These results are taken from patent US11186587B2, “Compound as ACC inhibitor and use thereof” (NANJING SANHOME PHARMACEUTICAL CO., LTD., priority 2017, dated 2021).

By IC50 is commonly meant the midpoint of a concentration-inhibition curve. A high value points to a need for much substance.

Data set [1] can be described thus: Evaluation of compound distribution in rat liver. It counts as in vivo. The following applies: male SD rats, single oral 3 mg/kg, 0.25 h after administration. The protocol: An acclimation period of 2-3 days was given before the experiments. The rats were fasted for 8-12 h before administration, supplied with water 2 h after administration and foods 4 h after administration.
6 mg of the test compound (based on free base) was weighed and added to 20 mL of ethanol-PEG400-saline (10:30:60). The mixture was vortexed for 2 min, and sonicated for 3 min, and then used to prepare a solution of test sample solution with a concentration of 0.3 mg/mL for oral administration. 100 μL of the test sample solution was volumed to 10 ng/mL with methanol, and a control sample of the same concentration was prepared. The concentrations of the test sample and control sample were detected by HPLC, and the accuracy was calculated.
SD rats were given a single oral administration of 3 mg/kg of test compound at a dose of 10 mL/kg. The rats were bled in femoral artery and ruptured in neck 0.25 h after administration. The liver and blood samples (anticoagulation with heparin sodium) were collected immediately, and placed on ice.
The homogenate was centrifuged (centrifugation conditions: 8000 rpm/min, 5 min, 4° C.). The supernatant was transferred and subjected to cryopreservation. The supernatant was thawed and centrifuged before injection, and the supernatant was collected and subjected to LC-MS/MS for analyzing the content of the compound in the supernatant sample.
The collected whole blood sample was placed on ice and centrifuged within 30 min (centrifugation conditions: 8000 rpm/min, 5 min, 4° C.). 100 μL of the upper layer of plasma was transferred, and precipitated with 300 μL of methanol. The mixture was shaken and centrifuged, and diluted with mobile phase. The supernatant was collected and subjected to LC-MS/MS for analyzing the content of the compound in the supernatant sample.

Data set [2] has as its target ACC1 (Homo sapiens (Human), UniProt Q13085). Nature of the data set: ACC1 enzyme activity assay (ADP-Glo). The following applies: ACC1 enzyme 2 nM working solution, room temperature. The class given is biochemical. The method, then: (§1) Compound preparation: the compounds of the present disclosure prepared in the above examples and the control compound were respectively formulated into 10 mM with DMSO for use.
(§2) Preparation of 1× reaction buffer (pH=7.4): HEPES stock solutions (1 M), MgCl2 (1 M), BRIJ-35 (10%), potassium citrate buffer (1 M), BSA (10 mg/mL) and DTT (500 mM) were formulated to enzyme reaction buffer containing HEPES (50 mM), MgCl2 (2 mM), BRIJ-35 (0.01%), potassium citrate buffer (2 mM), BSA (50 Gg/mL) and DTT (2 mM).
4.5 μL of 2.2×ACC1 enzyme (2 nM) working solution was added to a 384-well plate; and then 0.5 μL of different concentrations of compound were added. The mixture was incubated at room temperature for 15 min.
(§3) Negative control group: menstruum containing 5% DMSO; positive control group: menstruum containing 100 nM ND-630. The average values of each concentration and the positive and negative controls were calculated, and the standard deviation was calculated. […] The inhibition rate data was fitted by nonlinear regression equation to calculate IC50 of each compound. The nonlinear regression equation was Y=lowest value+(highest value−lowest value)/(1+10^((Log IC50−X)×HillSlope)), among which X is logarithm of the compound concentration and Y is inhibition percent (%).

Data set [3] addresses ACC2 (Homo sapiens (Human), UniProt O00763). In words: ACC2 enzyme activity assay (ADP-Glo). It counts as biochemical. The following applies: ACC2 enzyme 1.1 nM working solution, room temperature. The protocol:
as §1, §2
The mixture was incubated at room temperature for 15 min.
as §3

The subject of data set [4] is HFD-CCL4 induced NASH model. In words: Drug efficacy on NASH and liver fibrosis induced by HFD-CCL4. It counts as in vivo. The following applies: C57BL/6 mice, HFD 10 weeks + CCL4 4 weeks; intragastric once a day for 4 weeks; Example 25 10 mg/kg/d, ND-630 30 mg/kg/d; H&E staining. The protocol: High-fat diet (HFD) was used to induce liver steatosis in animals, and then carbon tetrachloride (CCL4) was used to induce liver inflammation, necrosis, and liver fibrosis. This model was similar to the human NASH disease process and pathological phenomenon. The purpose of this experiment was to evaluate the efficacy of the compound of the disclosure in a NASH model of C57BL/6 mice induced by HFD-CCL4, with ND-630 as a control compound. HFD-CCL4 inducement was performed for 10 weeks and drug intervention was performed for 4 weeks. The therapeutic effects of the drug on NASH and liver fibrosis were observed.
The test compounds in the examples of the present disclosure and ND-630 were diluted to 0.3 mg/mL, 1 mg/mL, 3 mg/mL with PEG200:0.2M Na2HPO4-NaH2PO4 buffer (35:65), which was prepared just before use.
HFD-CCL4 induced NASH model in C57BL/6 mice: the animals were first housed in the SPF barrier of the KCI Experimental Animal Center for 3-7 days, and then the animals were changed to HFD feeding in a cycle of 10 weeks. […]
The left liver lobe sample was fixed with 10% formalin and embedded in paraffin to prepare 5 μm sections for haematoxylin-eosin (H&E) staining. Hematoxylin-eosin staining can detect tissue inflammation, fat deposition, vacuolar degeneration and tissue fibrosis, giving semi-quantitative analysis for the lesion.
The data were expressed as mean±standard error. […]

Structures are written as SMILES. Where two headings read alike, the source gives them in different places.

Chain of ACC2 (O00763 whole entry): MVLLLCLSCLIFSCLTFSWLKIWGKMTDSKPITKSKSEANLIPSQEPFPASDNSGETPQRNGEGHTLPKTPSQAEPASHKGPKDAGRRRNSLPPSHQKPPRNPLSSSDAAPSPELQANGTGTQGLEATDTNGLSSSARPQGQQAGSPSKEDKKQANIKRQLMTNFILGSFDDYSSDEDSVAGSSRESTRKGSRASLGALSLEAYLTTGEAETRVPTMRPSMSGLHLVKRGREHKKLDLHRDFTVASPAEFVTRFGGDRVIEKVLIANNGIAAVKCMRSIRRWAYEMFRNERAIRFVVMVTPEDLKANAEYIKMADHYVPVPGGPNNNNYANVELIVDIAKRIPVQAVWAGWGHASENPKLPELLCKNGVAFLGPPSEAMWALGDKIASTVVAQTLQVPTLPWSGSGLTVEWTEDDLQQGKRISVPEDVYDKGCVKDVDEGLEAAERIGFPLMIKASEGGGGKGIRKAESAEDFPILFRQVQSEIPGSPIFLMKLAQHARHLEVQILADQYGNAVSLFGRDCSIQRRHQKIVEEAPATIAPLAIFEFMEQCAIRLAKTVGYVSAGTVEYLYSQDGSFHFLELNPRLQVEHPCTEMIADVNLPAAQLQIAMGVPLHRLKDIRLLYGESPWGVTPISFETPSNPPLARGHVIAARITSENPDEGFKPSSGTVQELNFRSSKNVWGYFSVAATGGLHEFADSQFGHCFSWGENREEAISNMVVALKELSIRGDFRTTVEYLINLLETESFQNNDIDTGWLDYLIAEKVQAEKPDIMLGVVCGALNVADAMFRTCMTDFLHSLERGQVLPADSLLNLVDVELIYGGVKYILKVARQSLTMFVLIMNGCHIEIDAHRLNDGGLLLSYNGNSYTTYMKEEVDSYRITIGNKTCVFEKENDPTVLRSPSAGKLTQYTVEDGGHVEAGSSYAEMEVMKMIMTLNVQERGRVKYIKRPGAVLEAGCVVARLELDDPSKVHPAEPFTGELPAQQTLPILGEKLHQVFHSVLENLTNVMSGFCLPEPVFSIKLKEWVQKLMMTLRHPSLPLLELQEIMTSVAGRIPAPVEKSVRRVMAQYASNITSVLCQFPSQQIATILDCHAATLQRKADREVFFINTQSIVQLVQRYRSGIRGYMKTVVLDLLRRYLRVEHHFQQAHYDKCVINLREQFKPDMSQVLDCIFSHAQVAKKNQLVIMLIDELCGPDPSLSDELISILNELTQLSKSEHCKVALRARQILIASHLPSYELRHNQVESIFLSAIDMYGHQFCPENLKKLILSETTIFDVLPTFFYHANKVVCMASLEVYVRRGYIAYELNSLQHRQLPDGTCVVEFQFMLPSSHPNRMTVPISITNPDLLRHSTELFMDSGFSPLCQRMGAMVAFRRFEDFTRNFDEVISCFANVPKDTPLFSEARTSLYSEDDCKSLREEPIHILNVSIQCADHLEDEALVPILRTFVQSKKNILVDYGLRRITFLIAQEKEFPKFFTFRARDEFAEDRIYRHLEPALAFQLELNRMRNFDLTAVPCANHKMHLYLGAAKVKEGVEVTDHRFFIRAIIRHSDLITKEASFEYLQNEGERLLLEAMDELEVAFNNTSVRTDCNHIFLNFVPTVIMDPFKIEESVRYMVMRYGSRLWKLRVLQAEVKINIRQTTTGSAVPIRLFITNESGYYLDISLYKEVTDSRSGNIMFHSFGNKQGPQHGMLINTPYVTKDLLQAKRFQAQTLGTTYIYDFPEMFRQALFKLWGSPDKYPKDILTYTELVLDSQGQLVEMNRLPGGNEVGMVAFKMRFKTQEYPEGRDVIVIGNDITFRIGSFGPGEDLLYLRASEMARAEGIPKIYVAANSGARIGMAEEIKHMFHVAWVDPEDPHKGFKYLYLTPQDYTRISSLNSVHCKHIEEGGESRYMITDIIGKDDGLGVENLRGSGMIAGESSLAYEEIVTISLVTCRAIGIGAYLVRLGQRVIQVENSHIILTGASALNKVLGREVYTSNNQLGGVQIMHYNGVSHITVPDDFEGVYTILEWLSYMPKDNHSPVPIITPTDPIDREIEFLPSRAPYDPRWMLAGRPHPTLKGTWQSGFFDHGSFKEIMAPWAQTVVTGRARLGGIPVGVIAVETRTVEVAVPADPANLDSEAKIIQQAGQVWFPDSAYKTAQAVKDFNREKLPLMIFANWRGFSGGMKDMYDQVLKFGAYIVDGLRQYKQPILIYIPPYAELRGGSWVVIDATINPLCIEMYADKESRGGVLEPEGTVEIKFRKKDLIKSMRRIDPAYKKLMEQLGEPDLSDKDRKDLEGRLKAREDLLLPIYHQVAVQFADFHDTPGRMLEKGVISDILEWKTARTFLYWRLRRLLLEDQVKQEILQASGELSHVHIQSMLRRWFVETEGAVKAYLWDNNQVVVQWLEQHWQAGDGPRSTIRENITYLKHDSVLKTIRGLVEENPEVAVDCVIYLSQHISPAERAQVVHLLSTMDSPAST

Consider `COc1ccccc1[C@H](Cn1c(=O)n(C(C)(C)C(=O)O)c(=O)c2c(C)c(-c3ncco3)sc21)OC1CCOCC1` [ND-630, 2-[1-[2-(2-methoxyphenyl)-2-(oxecyclo-4-yloxy)ethyl]-5-methyl-6-(1,3-oxazol-2-yl)-2,4-dioxo-1H,2H,3H,4H-thieno[2,3-d]pyrimidin-3-yl]-2-methylpropanoic acid, reference compound], for which the concentration at 0.25 h in data set [1] (liver, read-out: Concentration in Liver) stood at 6070 ng/g; in data set [1] (plasma, read-out: Concentration in Plasma) it was 145 ng/mL. Also, the Kp at 0.25 h in data set [1] (liver/plasma, read-out: Liver/plasma distribution ratio) amounted to 41.8. In addition, the IC50 was 0.5 nM in data set [2] and 3.56 nM in data set [3]. In data set [4], the “Hepatic steatosis score (Mean ± SD)” value came out at 0.13 ± 0.32. The “Hepatocyte necrosis score (Mean ± SD)” value in data set [4] is given as 1.00 ± 0.61.
